Data as given in BigSolDB 2.1.

CCCCCC[n+]1ccn(C)c1.O=[N+]([O-])[O-]
solubility (mole fraction)
Conditions	in benzene	in cyclohexane	in m-xylene	in n-heptane	in n-hexane	in n-octane	in n-pentane	in o-xylene	in p-xylene	in toluene
278.15 K	–	–	–	–	–	–	0.000359	–	–	–
283.15 K	–	–	–	–	–	–	0.000397	–	–	–
288.15 K	–	–	–	–	0.000306	–	0.000442	–	–	–
293.15 K	–	0.000304	–	–	0.000362	0.000203	0.000484	–	–	–
298.15 K	0.000219	0.000357	0.00239	–	0.00042	0.000234	0.000534	0.00133	0.000795	0.000278
303.15 K	0.000263	0.0004	0.00271	–	0.000492	0.000268	0.000578	0.00145	0.000896	0.000334
308.15 K	0.000308	0.000446	0.00303	–	0.000575	0.000299	–	0.0016	0.00102	0.00039
313.15 K	0.000382	0.000516	0.00337	0.000268	0.000693	0.000344	–	0.00173	0.00114	0.000482
318.15 K	0.000454	0.000592	0.00376	0.000358	0.000794	0.00038	–	0.00187	0.00128	0.000585
323.15 K	0.000536	0.000674	0.00413	0.00049	0.000895	0.000421	–	0.00198	0.00141	0.000686
328.15 K	0.00061	0.000751	0.00458	0.000629	0.000995	0.000458	–	0.00213	0.00155	0.000776
333.15 K	0.000714	0.000857	0.00505	0.000841	0.00113	0.000518	–	0.00227	0.00169	0.000904
338.15 K	0.000832	0.00097	0.00553	0.00109	–	0.000568	–	0.0024	0.00182	0.00106
343.15 K	0.000962	–	0.00607	0.00142	–	0.000631	–	0.00253	0.00199	0.00123
